# In ChEMBL document CHEMBL6127077, “Discovery and biological evaluation of 6-aryl-4-(3,4,5-trimethoxyphenyl)quinoline derivatives with promising antitumor activities as novel colchicine-binding site inhibitors” (Eur J Med Chem, 2024):
# Calls of active or inactive are those of the source. No cut-off for these calls is given here.
# Assays:
# [1] = system: SGC-7901; test: Antiproliferative activity against human SGC-7901 cells assessed as inhibition of cell growth incubated for 72 hrs by MTT assay; format: functional, cell-based; details: SGC-7901, 72 h
# [2] = Antiproliferative activity against human MCF7/ADM cells assessed as inhibition of cell growth incubated for 72 hrs by MTT assay; format: functional, cell-based
# [3] = Cytotoxicity against human HUVEC cells incubated for 72 hrs by MTT assay; format: toxicity, cell-based
# [4] = system: Huh-7; test: Induction of cell cycle arrest in human Huh-7 cells assessed as accumulation of cells at G0/G1 phase at 60 nM incubated for 30 to 60 mins by RNase/PI staining based flow cytometry analysis (reference value: 55.08%); format: functional; details: time 30-60 min
# [5] = system: Huh-7; test: Induction of cell cycle arrest in human Huh-7 cells assessed as accumulation of cells at G2M phase at 60 nM incubated for 30 to 60 mins by RNase/PI staining based flow cytometry analysis (reference value: 8.38%); format: functional; details: time 30-60 min
# [6] = system: Huh-7; test: Induction of cell cycle arrest in human Huh-7 cells assessed as accumulation of cells at S-phase at 60 nM incubated for 30 to 60 mins by RNase/PI staining based flow cytometry analysis (reference value: 36.54%); format: functional; details: time 30-60 min
# [7] = system: Huh-7; test: Induction of cell cycle arrest in human Huh-7 cells assessed as accumulation of cells at G0/G1 phase at 90 nM incubated for 30 to 60 mins by RNase/PI staining based flow cytometry analysis (reference value: 55.08%); format: functional; details: time 30-60 min
# [8] = system: Huh-7; test: Induction of cell cycle arrest in human Huh-7 cells assessed as accumulation of cells at G2M phase at 90 nM incubated for 30 to 60 mins by RNase/PI staining based flow cytometry analysis (reference value: 8.38%); format: functional; details: time 30-60 min
# [9] = system: Huh-7; test: Induction of cell cycle arrest in human Huh-7 cells assessed as accumulation of cells at S-phase at 90 nM incubated for 30 to 60 mins by RNase/PI staining based flow cytometry analysis (reference value: 36.54%); format: functional; details: time 30-60 min
# [10] = system: Huh-7; test: Induction of cell cycle arrest in human Huh-7 cells assessed as accumulation of cells at G0/G1 phase at 120 nM incubated for 30 to 60 mins by RNase/PI staining based flow cytometry analysis (reference value: 55.08%); format: functional; details: time 30-60 min
# [11] = system: Huh-7; test: Induction of cell cycle arrest in human Huh-7 cells assessed as accumulation of cells at G2M phase at 120 nM incubated for 30 to 60 mins by RNase/PI staining based flow cytometry analysis (reference value: 8.38%); format: functional; details: time 30-60 min
# [12] = system: Huh-7; test: Induction of cell cycle arrest in human Huh-7 cells assessed as accumulation of cells at S-phase at 120 nM incubated for 30 to 60 mins by RNase/PI staining based flow cytometry analysis (reference value: 36.54%); format: functional; details: time 30-60 min
# [13] = system: Huh-7; test: Induction of apoptosis in human Huh-7 cells assessed as viable cells at 60 nM incubated for 48 hrs by Annexin-V/PI staining based flow cytometry analysis (reference value: 94.8%); format: functional; details: read-out: Activity
# [14] = system: Huh-7; test: Induction of apoptosis in human Huh-7 cells assessed as early apoptotic cells at 60 nM incubated for 48 hrs by Annexin-V/PI staining based flow cytometry analysis (reference value: 0.56%); format: functional
# [15] = system: Huh-7; test: Induction of apoptosis in human Huh-7 cells assessed as late apoptotic cells at 60 nM incubated for 48 hrs by Annexin-V/PI staining based flow cytometry analysis (reference value: 4.06%); format: functional
# [16] = system: Huh-7; test: Induction of apoptosis in human Huh-7 cells assessed as necrotic cells at 60 nM incubated for 48 hrs by Annexin-V/PI staining based flow cytometry analysis (reference value: 0.60%); format: functional
# [17] = system: Huh-7; test: Induction of apoptosis in human Huh-7 cells assessed as viable cells at 90 nM incubated for 48 hrs by Annexin-V/PI staining based flow cytometry analysis (reference value: 94.8%); format: functional; details: read-out: Activity
# [18] = system: Huh-7; test: Induction of apoptosis in human Huh-7 cells assessed as early apoptotic cells at 90 nM incubated for 48 hrs by Annexin-V/PI staining based flow cytometry analysis (reference value: 0.56%); format: functional
# [19] = system: Huh-7; test: Induction of apoptosis in human Huh-7 cells assessed as late apoptotic cells at 90 nM incubated for 48 hrs by Annexin-V/PI staining based flow cytometry analysis (reference value: 4.06%); format: functional
# [20] = system: Huh-7; test: Induction of apoptosis in human Huh-7 cells assessed as necrotic cells at 90 nM incubated for 48 hrs by Annexin-V/PI staining based flow cytometry analysis (reference value: 0.60%); format: functional
# [21] = system: Huh-7; test: Induction of apoptosis in human Huh-7 cells assessed as viable cells at 120 nM incubated for 48 hrs by Annexin-V/PI staining based flow cytometry analysis (reference value: 94.8%); format: functional; details: read-out: Activity
# [22] = system: Huh-7; test: Induction of apoptosis in human Huh-7 cells assessed as early apoptotic cells at 120 nM incubated for 48 hrs by Annexin-V/PI staining based flow cytometry analysis (reference value: 0.56%); format: functional
# [23] = system: Huh-7; test: Induction of apoptosis in human Huh-7 cells assessed as late apoptotic cells at 120 nM incubated for 48 hrs by Annexin-V/PI staining based flow cytometry analysis (reference value: 4.06%); format: functional
# [24] = system: Huh-7; test: Induction of apoptosis in human Huh-7 cells assessed as necrotic cells at 120 nM incubated for 48 hrs by Annexin-V/PI staining based flow cytometry analysis (reference value: 0.60%); format: functional
# [25] = molecular target: T1, Tubulin (Homo sapiens) (UniProt P68371+Q9H4B7+P0DPH7+P68366+Q13509+Q71U36+P04350+Q3ZCM7+P07437+P68363+Q9BQE3+Q6PEY2+Q13885+Q9BVA1+Q9BUF5); test: Inhibition of tubulin polymerization (unknown origin) at 3 to 5 uM by infinite F500 microplate reader analysis; format: protein-complex assay; details: dose 3-5 µM
# [26] = molecular target: T1, Tubulin (Homo sapiens); test: Inhibition of tubulin polymerization (unknown origin) by infinite F500 microplate reader analysis; format: protein-complex assay; details: dose 3-5 µM
# [27] = molecular target: T1, Tubulin (Homo sapiens); test: Binding affinity to Tubulin (unknown origin) colchicine binding site assessed as reduction in colchicine-tubulin complex formation by Fluorescence based analysis; format: protein-complex assay; details: dose 2-6 µM
# [28] = molecular target: T1, Tubulin (Homo sapiens); test: Disruption of microtubule network in human Huh-7 cells assessed as shortened microtubule wrap around the nucleus incubated for 24 hrs by DAPI staining based microscopic analysis; format: cell-based; details: dose 30-60 nM
# [29] = system: Huh-7; test: Antitumor activity against human Huh-7 cells xenografted in male BALB/c mouse at 15 mg/kg, ip administered every 2 days for 2 weeks; format: functional, organism-based
# [30] = Toxicity in male BALB/c mouse assessed as body weight loss at 15 mg/kg, ip administered every 2 days for 2 weeks; format: organism-based; details: in vivo, 336 h
# [31] = Toxicity in male BALB/c mouse assessed as liver damage at 15 mg/kg, ip administered every 2 days for 2 weeks by H and E staining based analysis; format: organism-based; details: in vivo, 336 h
# [32] = system: Huh-7; test: cells; details: Homo sapiens, Huh-7, 72 h
# Description: Antiproliferative activity against human Huh-7 cells assessed as inhibition of cell growth incubated for 72 hrs by MTT assay
# [33] = system: MCF7; test: cells; details: Homo sapiens, MCF7, 72 h
# Description: Antiproliferative activity against human MCF7 cells assessed as inhibition of cell growth incubated for 72 hrs by MTT assay
# [34] = molecular target: T1, Tubulin (Homo sapiens); test: Inhibition of tubulin polymerization (unknown origin) at 5 uM by infinite F500 microplate reader analysis; format: protein-complex assay
structure (smiles),measurement,setting,value
COc1cc(-c2ccnc3ccc(-c4cccc5[nH]ccc45)cc23)cc(OC)c1OC,IC50,[1],0.18 µM
same,IC50,[2],0.52 µM
same,IC50 at 72 h,[3],5.82 µM
same,Activity,[4],53.2%
same,Activity,[5],9.39%
same,Activity,[6],37.41%
same,Activity,[7],47.21%
same,Activity,[8],28.14%
same,Activity,[9],24.65%
same,Activity,[10],9.25%
same,Activity,[11],48.72%
same,Activity,[12],42.03%
same,viability at 0.06 µM,[13],91.1%
same,Activity,[14],1.05%
same,Activity,[15],6.27%
same,Activity,[16],1.58%
same,viability at 0.09 µM,[17],72.5%
same,Activity,[18],4.05%
same,Activity,[19],20.1%
same,Activity,[20],3.39%
same,viability at 0.12 µM,[21],63.5%
same,Activity,[22],4.73%
same,Activity,[23],29.3%
same,Activity,[24],2.45%
same,inhibition,[25],Active
same,inhibition,[26],Dose-Dependent Effect
same,Activity,[27],Dose-Dependent Effect
same,Activity,[28],Dose-Dependent Effect
same,Activity,[29],Active
same,Activity,[30],Non-Toxic
same,Activity,[31],Non-Toxic
same,IC50,[32],0.03 µM
same,IC50,[33],0.13 µM
COc1ccccc1-c1ccc2nccc(-c3cc(OC)c(OC)c(OC)c3)c2c1,IC50,[1],17.3 µM
same,IC50,[32],4.69 µM
same,IC50,[33],> 100 µM
COc1cc(-c2ccnc3ccc(-c4cccnc4)cc23)cc(OC)c1OC,IC50,[1],9.11 µM
same,IC50,[32],4.58 µM
same,IC50,[33],22.1 µM
COc1cc(-c2ccnc3ccc(-c4ccc5ccccc5c4)cc23)cc(OC)c1OC,IC50,[1],1.36 µM
same,IC50,[32],4.45 µM
same,IC50,[33],> 100 µM
COc1ccc(-c2ccc3nccc(-c4cc(OC)c(OC)c(OC)c4)c3c2)cc1,IC50,[1],1.38 µM
same,IC50,[32],0.04 µM
same,IC50,[33],0.33 µM
COc1ccc(/C=C\c2cc(OC)c(OC)c(OC)c2)cc1O [COMBRETASTATIN A4],IC50,[1],0.12 µM
same,IC50,[2],2 µM
same,IC50 at 72 h,[3],0.32 µM
same,Activity,[28],Dose-Dependent Effect
same,IC50,[32],0.079 µM
same,IC50,[33],0.087 µM
COc1ccc(-c2ccc3nccc(-c4cc(OC)c(OC)c(OC)c4)c3c2)cc1O,IC50,[1],25.3 µM
same,IC50,[32],0.12 µM
same,IC50,[33],3.62 µM
COc1cccc(-c2ccc3nccc(-c4cc(OC)c(OC)c(OC)c4)c3c2)c1,IC50,[1],7.83 µM
same,IC50,[32],3.36 µM
same,IC50,[33],17.5 µM
COc1cc(-c2ccnc3ccc(-c4cccc(C)c4)cc23)cc(OC)c1OC,IC50,[1],35 µM
same,IC50,[32],1.32 µM
same,IC50,[33],17.9 µM
COc1cc(-c2ccnc3ccc(-c4ccc(C)cc4)cc23)cc(OC)c1OC,IC50,[1],0.6 µM
same,IC50,[32],1.15 µM
same,IC50,[33],1.36 µM
COc1cc(-c2ccnc3ccc(-c4ccc([N+](=O)[O-])cc4)cc23)cc(OC)c1OC,IC50,[1],20.3 µM
same,IC50,[32],8.22 µM
same,IC50,[33],> 100 µM
COc1cc(-c2ccnc3ccc(-c4ccncc4)cc23)cc(OC)c1OC,IC50,[1],> 100 µM
same,IC50,[32],> 100 µM
same,IC50,[33],44.5 µM
COc1cc(-c2ccnc3ccc(-c4ccsc4)cc23)cc(OC)c1OC,IC50,[1],1.78 µM
same,IC50,[32],0.27 µM
same,IC50,[33],2.24 µM
CC(=O)O[C@H]1C(=O)[C@@]2(C)[C@H]([C@H](OC(=O)c3ccccc3)[C@]3(O)C[C@H](OC(=O)[C@H](O)[C@@H](NC(=O)c4ccccc4)c4ccccc4)C(C)=C1C3(C)C)[C@]1(OC(C)=O)CO[C@@H]1C[C@@H]2O,inhibition,[34],Active
COc1cc(-c2ccnc3ccc(-c4ccc(F)cc4)cc23)cc(OC)c1OC,IC50,[1],10.5 µM
same,IC50,[32],5.15 µM
same,IC50,[33],17.1 µM
COc1cc(-c2ccnc3ccc(-c4ccccc4)cc23)cc(OC)c1OC,IC50,[1],7.92 µM
same,IC50,[32],1.15 µM
same,IC50,[33],1.43 µM
COc1ccc(-c2ccc3nccc(-c4cc(OC)c(OC)c(OC)c4)c3c2)cc1OC,IC50,[1],0.88 µM
same,IC50,[32],0.08 µM
same,IC50,[33],0.96 µM
COc1cc(-c2ccnc3ccc(-c4ccc(C#N)cc4)cc23)cc(OC)c1OC,IC50,[1],7.33 µM
same,IC50,[32],3.41 µM
same,IC50,[33],> 100 µM
COc1cc(-c2ccnc3ccc(-c4ccc(O)cc4)cc23)cc(OC)c1OC,IC50,[1],1.91 µM
same,IC50,[32],0.32 µM
same,IC50,[33],> 100 µM
COc1cc(-c2ccnc3ccc(-c4ccc(C)c(C)c4)cc23)cc(OC)c1OC,IC50,[1],2.15 µM
same,IC50,[32],3.67 µM
same,IC50,[33],1.34 µM
COc1cc(-c2ccnc3ccc(-c4ccc(Cl)cc4)cc23)cc(OC)c1OC,IC50,[1],12.1 µM
same,IC50,[32],4.56 µM
same,IC50,[33],16.2 µM
CCOc1ccc(-c2ccc3nccc(-c4cc(OC)c(OC)c(OC)c4)c3c2)cc1,IC50,[1],3.87 µM
same,IC50,[32],0.42 µM
same,IC50,[33],3.11 µM
COc1cc(-c2ccnc3ccc(-c4ccccc4C)cc23)cc(OC)c1OC,IC50,[1],> 100 µM
same,IC50,[32],39.8 µM
same,IC50,[33],> 100 µM
